Laboratory results taken from patent US20240165083A1, “TASIPIMIDINE FORMULATIONS AND USE THEREOF” (ORION CORPORATION, priority 2021, published 2024).

Columns and labels:
Assay type in all cases: in vivo, dog
[1] = system: client-owned dogs with a history of acute anxiety and fear associated with noise due to fireworks; experiment: Clinical field study in dogs: noise anxiety (fireworks); conditions: 30 μg/kg orally 1-3 times as needed, New Year's Eve
Method: (§1) Three randomized, double-blind, placebo-controlled, clinical field studies were conducted for evaluating the effectiveness and clinical safety of tasipimidine for the treatment of situational anxiety and fear-based behaviors in dogs triggered by events such as travel, noise, or owner departure. Across all three studies dogs were randomized to receive either 0.03 mg/kg of tasipimidine (n=131) or placebo (n=133) orally at home by the owner. Assessments were made using video (in the case of when left alone or car travel) or by the caretaker present during the fear inducing incident (in the case of noise anxiety). Both were assessed using a numerical rating scale with scores 1-5.
The first study was conducted in client-owned dogs with a history of acute anxiety and fear associated with noise due to fireworks. Dogs receive tasipimidine 30 μg/kg or placebo 1-3 times as needed with at least 3 hours between doses during New Year's Eve. The primary efficacy variable was the owner's assessment of the effect of study treatment on the dog's signs of acute anxiety and fear due to fireworks. The assessment was made once at least 2 hours after the last dose or at 1:00 A.M., whichever occurred later.

[2] = system: client-owned dogs suffering from travel anxiety; experiment: Clinical field study in dogs: travel anxiety; conditions: single oral dose 30 μg/kg approximately 1 hour before car travel
Method: as §1
The third study was conducted in client-owned dogs suffering from travel anxiety. Dogs received a single dose of tasipimidine 30 μg/kg or placebo approximately 1 hour before car travel. The primary efficacy variable was the external observer's assessment of signs of anxiety and fear from video recordings. The owner assessed the treatment effect based on the dog's behavior during the first 10 minutes of car travel.

dogs = experiment: Clinical safety in the three clinical field studies in dogs; conditions: 30 μg/kg orally
Method: as §1

[3] = system: client-owned dogs suffering from separation anxiety; experiment: Clinical field study in dogs: separation anxiety; conditions: 30 μg/kg orally 1-3 times a day as needed, 5-7 days a week for 5 weeks
Method: as §1
The second study was conducted in client-owned dogs suffering from separation anxiety. Dogs received tasipimidine 30 μg/kg or placebo 1-3 times a day as needed 5-7 days a week for 5 weeks. The primary efficacy variable was the owner's assessment of the effect of the study treatment on acute anxiety related to the owner's departure. Dog owners assessed the effect of the study treatment on their dog's signs of separation anxiety from video recordings after returning home. The owner also took into account the signs of the dog's behavior during the separation (e.g., destruction and elimination) that were not visible in the video recording.

Q: How did the “treatment effect compared with placebo: owner's assessment of signs of acute anxiety and fear due to fireworks” value [1] turn out when `COc1cccc2c1CCOC2C1=NCCN1` (stereo not shown) [Tasipimidine, 2-(5-methoxyisochroman-1-yl)-4,5-dihydro-1H-imidazole] was run?
A: statistically significant treatment effect in favor of tasipimidine

Q: What about the “treatment effect compared with placebo: external observer's assessment of signs of anxiety and fear from video recordings” value [2] of the same compound?
A: statistically significant treatment effect in favor of tasipimidine

Q: What about the “marked ataxia or clinical sedation” value (dogs) of the same compound?
A: did not produce marked ataxia or clinical sedation

Q: What about the “treatment effect compared with placebo: owner's assessment of acute anxiety related to the owner's departure” value [3] of the same compound?
A: statistically significant treatment effect in favor of tasipimidine
